This passage reports IC50, Activity and viability results from ChEMBL document CHEMBL4138286, “ent-Jungermannenone C Triggers Reactive Oxygen Species-Dependent Cell Differentiation in Leukemia Cells” (J Nat Prod, 2018).

Data set [1] is described as follows: Cytotoxicity against human OCI-Ly8 cells assessed as reduction in cell viability after 24 hrs by CellTiter-Glo assay. Type of data set: functional, cell-based. As to conditions: OCI-Ly8, 24 h.
In the next data set the test system is PBMC. The data set can be described thus: Cytotoxicity against PBMC (unknown origin) assessed as reduction in cell viability at 1 to 20 uM after 24 hrs by trypan blue exclusion assay. It is filed as cell-based.
In the next data set the test system is SU-DHL-2. The experiment in a line: Cytotoxicity against human SU-DHL-2 cells assessed as reduction in cell viability after 24 hrs by CellTiter-Glo assay. It is filed as functional, cell-based. As to conditions: SU-DHL-2, 24 h. A general note: ATP-based viability assays read luminescence as a measure of living cells.
Data set [2] in a line: Cytotoxicity against PBMC (unknown origin) assessed as cell viability at 20 uM after 24 hrs by trypan blue exclusion assay relative to control. It is filed as cell-based. As to conditions: read-out: Activity.
Data set [3] concerns the target T1, Peroxiredoxin-1 (Homo sapiens) (UniProt Q06830).
T1 sequence (whole entry): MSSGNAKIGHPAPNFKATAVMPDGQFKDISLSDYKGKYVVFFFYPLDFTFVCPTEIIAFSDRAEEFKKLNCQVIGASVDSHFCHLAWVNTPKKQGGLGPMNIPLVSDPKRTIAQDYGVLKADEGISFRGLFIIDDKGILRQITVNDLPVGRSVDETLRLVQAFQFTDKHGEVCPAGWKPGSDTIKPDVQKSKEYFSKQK
The experiment in a line: Binding affinity to wild type recombinant human N-terminal 6His-tagged peroxiredoxin-1 expressed in Escherichia coli BL21 after 1 hr by LC-MS/MS analysis.

Data set [4] has as its system NB-4. The data set can be described thus: Induction of cell differentiation in human NB4 cells assessed as CD11b+ expression at 3 uM pretreated with NAC for 4 hrs followed by compound addition measured after 6 days by flow cytometry (reference value: 4.58 +/- 1.53%). Type of data set: functional. Background: Flow cytometry measures light scatter and fluorescence of single cells or particles in a stream.

The next data set has as its system A549. The experiment in a line: Cytotoxicity against human A549 cells assessed as reduction in cell viability after 24 hrs by CellTiter-Glo assay. Type of data set: functional, cell-based.
The nature of data set [5]: Induction of cell differentiation in human MR2 cells assessed as CD11b+ expression at 2 uM after 3 days by flow cytometry (reference value: 4.3%). It is filed as functional.
The test system of data set [6] is NB-4. The data set can be described thus: Cytotoxicity against human NB4 cells assessed as reduction in cell viability at 3 uM measured up to 72 hrs by trypan blue exclusion assay. It is filed as functional, cell-based.
The nature of data set [7]: Induction of cell differentiation in human NB4-LR2 cells assessed as CD11b+ expression at 2 uM after 3 days by flow cytometry (reference value: 13.3%). It is filed as functional.
Data set [8] in a line: Induction of cell differentiation in human NB4-LR2 cells assessed as CD11b+ expression at 4 uM after 24 hrs by flow cytometry (reference value: 6.36%). It is filed as functional.
In data set [9] the target is T1, Peroxiredoxin-1 (Homo sapiens). The data set can be described thus: Binding affinity to wild type recombinant human N-terminal 6His-tagged peroxiredoxin-1 expressed in Escherichia coli BL21 up to 200 uM by immunoblot analysis. For orientation: In western blotting, separated proteins are transferred to a membrane and probed.
The next data set deals with Ramos. The data set can be described thus: Cytotoxicity against human Ramos cells assessed as reduction in cell viability after 24 hrs by CellTiter-Glo assay. It is filed as functional, cell-based.
Data set [10] relates to NB-4. The experiment in a line: Induction of cell differentiation in human NB4 cells assessed as CD11b+ expression at 3 uM measured after 6 days by flow cytometry (reference value: 4.58 +/- 1.53%). It is filed as functional.
A short description of data set [11]: Potentiation of ATRA-induced cell differentiation in human NB4-LR2 cells assessed as CD11b+ expression at 2 uM after 3 days by flow cytometry (reference value: 28.8%). Type of data set: functional.
Data set [12] can be described thus: Cytotoxicity against human NB4-LR2 cells assessed as reduction in cell viability after 24 hrs by CellTiter-Glo assay. Type of data set: functional, cell-based.
Data set [13] concerns NB-4. The experiment in a line: Potentiation of ATRA-induced cell differentiation in human NB4 cells assessed as CD11b+ expression at 3 uM after 3 days by flow cytometry (reference value: 56.1%). It is filed as functional.
The subject of data set [14] is NB-4. The experiment in a line: Induction of cell differentiation in human NB4 cells assessed as CD11b positive cells at 3 uM after 6 days by flow cytometry (reference value: 7.25 +/- 1.18%). Type of data set: functional.
The next data set concerns U-937. The data set can be described thus: Induction of cell differentiation in human U937 cells assessed as CD11b+ expression at 4 uM after 24 hrs by flow cytometry (reference value: 13.46%). Type of data set: functional.
Data set [15] has as its system NB-4. The data set can be described thus: Induction of ROS accumulation in human NB4 cells at 3 uM by CM-H2DCFDA probe based flow cytometry. It is filed as functional, cell-based.
For the next data set, the system named is SUD4. The data set can be described thus: Cytotoxicity against human SUDHL4 cells assessed as reduction in cell viability after 24 hrs by CellTiter-Glo assay. Type of data set: functional, cell-based. As to conditions: SU-DHL-4, 24 h.
For data set [16], the system named is NB-4. The data set can be described thus: Cytotoxicity against human NB4 cells assessed as reduction in cell viability after 24 hrs by CellTiter-Glo assay. It is filed as functional, cell-based. As to conditions: NB-4, 24 h.
The subject of data set [17] is NB-4. The data set can be described thus: Induction of cell differentiation in human NB4 cells at 3 uM after 6 days by light microscopy based NBT reduction assay. Type of data set: functional.
A short description of data set [18]: Potentiation of ATRA-induced cell differentiation in human MR2 cells assessed as CD11b+ expression at 2 uM after 3 days by flow cytometry (reference value: 24.5%). Type of data set: functional.
The test system of another data set is OCI-Ly10. The experiment in a line: Cytotoxicity against human OCI-LY10 cells assessed as reduction in cell viability after 24 hrs by CellTiter-Glo assay. Type of data set: functional, cell-based. Particulars: OCI-Ly10, 24 h.
The test system of a further data set is HL-60. The experiment in a line: Cytotoxicity against human HL60 cells assessed as reduction in cell viability after 24 hrs by CellTiter-Glo assay. It is filed as functional, cell-based. Particulars: HL-60, 24 h.
Data set [19] addresses T2, Peroxiredoxin-2 (Homo sapiens) (UniProt P32119).
T2 sequence (whole entry): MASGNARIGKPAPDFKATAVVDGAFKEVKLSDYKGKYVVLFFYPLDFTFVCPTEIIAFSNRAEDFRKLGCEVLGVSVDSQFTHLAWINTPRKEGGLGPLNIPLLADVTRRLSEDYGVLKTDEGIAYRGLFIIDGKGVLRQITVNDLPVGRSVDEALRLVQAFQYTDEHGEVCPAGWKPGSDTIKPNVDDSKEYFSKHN
The experiment in a line: Binding affinity to wild type recombinant human N-terminal 6His-tagged peroxiredoxin-2 expressed in Escherichia coli BL21 after 1 hr by LC-MS/MS analysis.

Data set [20] has as its system NB-4. The experiment in a line: Induction of cell differentiation in human NB4 cells assessed as reduction in nucleus/cytoplasm ratio at 3 uM after 6 days by Wright-Giemsa staining based assay. It is filed as functional.
For data set [21], the system named is NB-4. The experiment in a line: Induction of cell differentiation in human NB4 cells assessed as CD11b+ expression at 3 uM after 3 days by flow cytometry (reference value: 7.5%). It is filed as functional.
In data set [22] the test system is NB-4. The experiment in a line: Cytotoxicity against human NB4 cells assessed as reduction in cell viability pretreated with NAC for 4 hrs followed by compound addition measured after 24 hrs by trypan blue assay. Type of data set: functional, cell-based.

Broadly, the IC50 is the midpoint of a concentration-inhibition curve.

Molecules are shown by their SMILES. Active and inactive are the calls of the source. The rule behind the calls is not given here.

In the case of `C=C1C(=O)C2C3=C(CCC4C(C)(C)CCCC34C)CC1C2O` (racemic), the IC50 (in data set [1]; in the data set on SU-DHL-2) was less than 5 µM throughout. The Activity entry in the data set on PBMC is “Non-Toxic”. In addition, the viability at 24 h, 20 µM in data set [2] is 80%.
On to `C=C1C(=O)[C@H]2C3=C(CC[C@H]4C(C)(C)CCC[C@]34C)C[C@@H]1[C@H]2O`, for which the outcome (in [3]; in the data set on A549; in [9]; in the data set on NB-4 [15]; in data set [19]; with NB-4 [20]) was Active. For the same compound, the Activity with NB-4 [4] was 13.2%; in data set [5] it was 4.9%; in [7], 29.4%; in [8], 21.4%; in the data set with NB-4 [10], 44.97%; in data set [11], 49.5%. Further, the Activity in the data set on NB-4 [13] was 80.6%; in the data set with NB-4 [14], 40.7%; with U-937, 33.13%; in the data set with NB-4 [17] it was 40%; in data set [18], 32.6%; in the data set with NB-4 [21] it was 16.4%. The result in the data set on NB-4 [6] and in the data set on NB-4 [22] was inactive. In addition, the IC50 in the data set on Ramos was found to be 1.9 µM; in data set [12] it was 1.6 µM; in the data set on SUD4 it was 1.3 µM; in the data set on NB-4 [16] it was 1.8 µM; in the data set with OCI-Ly10, 3.7 µM; in the data set with HL-60, 1.8 µM.
As to `C=C1C(=O)[C@@H]2C3=C(CC[C@@H]4C(C)(C)CCC[C@@]34C)C[C@H]1[C@@H]2O`, the IC50 is 5.1 µM in the data set with Ramos; 3.1 µM in data set [12]; 4.8 µM in the data set with SUD4; 4.7 µM in the data set with NB-4 [16]; 8.4 µM in the data set with OCI-Ly10; 3.1 µM in the data set with HL-60. The compound also returned an Activity with NB-4 [17] of 17%.
